Data from patent US12577217B2, “15-PGDH inhibitor” (KYORIN Pharmaceutical Co., Ltd., priority 2019, dated 2026).

Target: T1, recombinant human 15-PGDH (Homo sapiens, UniProt P15428)
T1 construct: purchased R&D Systems
T1 sequence (P15428 1-266): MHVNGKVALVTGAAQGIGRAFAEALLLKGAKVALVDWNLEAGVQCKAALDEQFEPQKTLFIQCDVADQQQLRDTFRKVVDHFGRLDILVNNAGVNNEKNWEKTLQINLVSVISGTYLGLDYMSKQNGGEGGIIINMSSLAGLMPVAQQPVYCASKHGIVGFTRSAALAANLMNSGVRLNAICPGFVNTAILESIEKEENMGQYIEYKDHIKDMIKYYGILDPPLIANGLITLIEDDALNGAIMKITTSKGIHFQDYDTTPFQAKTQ
Experiment: 15-PGDH enzyme inhibition test
Assay type: biochemical
Settings: 4 nM recombinant human 15-PGDH, 30 μM PGE2, 1 mM NAD+, 60 minutes after starting the reaction; read-out: IC50 Value
Procedure, shortened: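 Fluorescence (excitation 340 nm, emission 440 nm) measured 60 min after adding 1 mM NAD+ and 30 μM PGE2 to 4 nM recombinant human 15-PGDH, which had stood 12 min at room temperature with compound in pH 8.0 Tris-HCl buffer. Concentration-response curves yield IC50, binned into potency categories.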

| SMILES | IC50 |
| --- | --- |
| Cn1nc2cc(N3CCOc4cc(C(=O)N5CCCC6CC65)cnc43)ccn2c1=O (single isomer, unassigned) [23-1 Isomer B, 7-(7-(2-Azabicyclo[4,1,0]heptane-2-carbonyl)-2,3-dihydro-4H-pyrido[3,2-b][1,4]oxazin-4-yl)-2-methyl-[1,2,4]triazolo[4,3-a]pyridin-3(2H)-one] | < 10 nM |
| Cn1nc2cc(N3CCOc4cc(C(=O)N5CCCCC5)cnc43)c(Cl)cn2c1=O [Example 1-270] | > 100 nM |
| COCCOCCn1nc2cc(N3CCCc4cc(C(=O)N5CCC[C@H](CF)C5)cnc43)ccn2c1=O [Example 1-118] | < 10 nM |
| O=C(c1cnc2c(c1)OCCN2c1ccc(F)c(F)c1)N1CCCCC1 [Example 1-239] | 10 to 100 nM |
| O=C(c1cnc2c(c1)OCCN2c1cccnc1)N1CCCCC1 [Example 1-234] | 10 to 100 nM |
| COCn1nc2cc(N3CCCc4cc(C(=O)N5CCC[C@H](CF)C5)cnc43)ccn2c1=O [Example 1-114] | < 10 nM |
| COC(=O)c1ccc(N2CCOc3cc(C(=O)N4CCCCC4)cnc32)cc1 [Example 1-261] | < 10 nM |
| CCOCCN1Cc2cc(N3CCOc4cc(C(=O)N5CCC(F)(F)CC5)cnc43)ccc2C1=O [Example 1-50] | < 10 nM |
| O=C(c1cnc2c(c1)CCCN2c1ccc2c(c1)CN(C1CC1)C2=O)N1CCCCC1 [Example 1-198] | < 10 nM |
| CCN1Cc2cc(N3CCCc4cc(C(=O)N5CCCCC5)cnc43)ccc2C1=O [Example 1-169] | < 10 nM |
| CN1Cc2cc(N3CCCc4cc(C(=O)N5CCC(F)(F)CC5)cnc43)ncc2C1=O [Example 1-85] | 10 to 100 nM |
| CN1Cc2cc(N3CCCc4cc(C(=O)N5CCCCC5)cnc43)ccc2C1=O [Example 1-68] | < 10 nM |
| COC(=O)c1ccccc1N1CCOc2cc(C(=O)N3CCCCC3)ccc21 [Example 1-137] | > 100 nM |
| N#Cc1ccc(N2CCOc3cc(C(=O)N4CCCCC4)cnc32)cc1 [Example 1-241] | < 10 nM |
| Cn1nc2cc(N3CCSc4cc(C(=O)N5CCCCC5)ccc43)ccn2c1=O [Example 1-97] | < 10 nM |
| CCOCn1nc2cc(N3CCCc4cc(C(=O)N5CCCCC5)cnc43)ccn2c1=O [Example 1-57] | < 10 nM |
| CCCn1nc2cc(N3CCCc4cc(C(=O)N5CCCCC5)cnc43)ccn2c1=O [Example 1-202] | < 10 nM |
| CCCN1Cc2cc(N3CCCc4cc(C(=O)N5CCCCC5)cnc43)ccc2C1=O [Example 1-196] | < 10 nM |
| Cn1nc2cc(N3CCOc4cc(C(=O)C5CCC(F)(F)CC5)cnc43)ccn2c1=O [Example 1-132] | < 10 nM |
| CCOCn1nc2cc(N3CCOc4cc(C(=O)N5CCC(F)(F)CC5)cnc43)ccn2c1=O [Example 1-44] | < 10 nM |

Continued, values first:

| IC50 | SMILES |
| --- | --- |
| < 10 nM | C[C@@H]1CCCN(C(=O)c2cnc3c(c2)OCCN3c2ccc3c(c2)CN(C)C3=O)C1 [Example 8-197] |
| > 100 nM | CN(C)C1CCCN(C(=O)c2cnc3c(c2)OCCN3c2ccn3c(=O)n(C)nc3c2)C1 (stereo not drawn) [Example 33-1, 7-(7-(3-(Dimethylamino)piperidine-1-carbonyl)-2,3-dihydro-4H-pyrido[3,2-b] [1,4]oxazin-4-yl)-2-methyl-[1,2,4]triazolo[4,3-a]pyridin-3(2H)-one] |
| < 10 nM | CCn1nc2cc(N3CCCc4cc(C(=O)N5CCC[C@@H](C)C5)cnc43)ccn2c1=O [Example 8-159] |
| < 10 nM | CCN1Cc2cc(N3CCCc4cc(C(=O)N5CCC5)cnc43)ccc2C1=O [Example 8-68] |
| < 10 nM | O=C(O)c1ccc(N2CCCCOc3cc(C(=O)N4CCCCC4)ccc32)cc1 [Example 2-6] |
| < 10 nM | Cn1nc2cc(N3CCOc4cc(C(O)C5CCCCC5)cnc43)ccn2c1=O (stereo not drawn) [Example 19-1, 7-(7-(Cyclohexyl(hydroxy)methyl)-2,3-dihydro-4H-pyrido[3,2-b] [1,4]oxazin-4-yl)-2-methyl-[1,2,4]triazolo[4,3-a]pyridin-3 (2H)-one] |
| < 10 nM | O=C1NCc2cc(N3CCOc4cc(C(=O)N5CCCCC5)cnc43)ccc21 [Example 14-2] |
| < 10 nM | CCN1Cc2cc(N3CCCc4cc(C(=O)N5CCCC(F)(F)C5)cnc43)ccc2C1=O [Example 8-85] |
| < 10 nM | Cn1nc2cc(N3CCCc4cc(C(=O)N5CCC(F)CC5)cnc43)ccn2c1=O [Example 8-140] |
| < 10 nM | COc1cc(N2CCOc3cc(C(=O)N4CCCCC4)ccc32)ccc1C(=O)O [Example 2-12] |
| < 10 nM | Cn1nc2cc(N3CCOc4cc(C(=O)N5CCC6CC6C5)cnc43)ccn2c1=O (stereo not drawn) [Example 8-46] |
| < 10 nM | CCN1Cc2cc(N3CCCc4cc(C(=O)N5CCC[C@@H](F)C5)cnc43)ccc2C1=O [Example 8-83] |
| < 10 nM | Cn1nc2cc(N3CCOc4cc(C(=O)N5CC(F)(F)C5)cnc43)ccn2c1=O [Example 8-30] |
| < 10 nM | CC1CCN(C(=O)c2cnc3c(c2)OCCN3c2ccc3c(c2)CN(C)C3=O)CC1 [Example 8-194] |
| < 10 nM | O=C1NCc2cc(N3CCOc4cc(C(=O)N5CCC(F)(F)CC5)ccc43)ccc21 [Example 14-3] |
| < 10 nM | O=C(O)c1ccc(N2CCOc3cc(C(=O)N4CCC[C@H](F)C4)cnc32)cc1 [Example 4-8] |

| IC50 | SMILES |
| --- | --- |
| 10 to 100 nM | O=C(O)c1cccc(N2CCOc3cc(C(=O)N4CCCCC4)cnc32)c1 [Example 4-19] |
| < 10 nM | O=C(c1cnc2c(c1)CCCN2c1ccn2c(=O)n(C3CC3)nc2c1)N1CCCCC1 [Example 26-1, 2-Cyclopropyl-7-(6-(piperidine-1-carbonyl)-3,4-dihydro-1,8-naphthylidin-1(2H)-yl)-[1,2,4]triazolo[4,3-a]pyridin-3(2H)-one] |
| < 10 nM | CCN1Cc2cc(N3CCCc4cc(C(=O)N5CCCC5)cnc43)ccc2C1=O [Example 8-69] |
| < 10 nM | O=C1NCc2cc(N3CCOc4cc(C(=O)N5CCCCC5)cnc43)ncc21 [Example 14-9] |
| < 10 nM | CCn1nc2cc(N3CCCc4cc(C(=O)N5CCCC(C)(F)C5)cnc43)ccn2c1=O (stereo not drawn) [Example 8-166] |
| < 10 nM | CCN1Cc2cc(N3CCCc4cc(C(=O)N5CCC[C@H](C(F)(F)F)C5)cnc43)ccc2C1=O [Example 8-88] |
| < 10 nM | CCn1nc2cc(N3CCCc4cc(C(=O)N5CCC[C@H](C)C5)cnc43)ccn2c1=O [Example 8-160] |
| < 10 nM | O=C(O)c1ccc(N2CCCOc3cc(C(=O)N4CCCCC4)cnc32)cc1 [Example 2-8] |
| < 10 nM | O=C(O)c1ccc(N2CCOc3cc(C(=O)N4CC=CCC4)cnc32)cc1 [Example 4-9] |
| > 100 nM | Cn1nc2cc(N3CCOc4cc(C(=O)N5CCC[C@H]5C(N)=O)cnc43)ccn2c1=O [Example 36-1, (S)-1-(4-(2-Methyl-3-oxo-2,3-dihydro-[1,2,4]triazolo[4,3-a]pyridin-7-yl)-3,4-dihydro-2H-pyrido[3,2-b][1,4]oxazine-7-carbonyl)pyrrolidine-2-carboxamide] |
| < 10 nM | CCn1nc2cc(N3CCOc4cc(C(=O)N5CCCC5)cnc43)ccn2c1=O [Example 8-19] |
| 10 to 100 nM | C[C@@H]1CCCN1C(=O)c1cnc2c(c1)OCCN2c1ccn2c(=O)n(C)nc2c1 [Example 8-22] |
| < 10 nM | Cn1nc2cc(N3CCOc4cc(C(=O)N5CCCCCC5)cnc43)ccn2c1=O [Example 8-102] |
| 10 to 100 nM | CN1CCN(C(=O)c2cnc3c(c2)OCCN3c2ccn3c(=O)n(C)nc3c2)CC1 [Example 8-226] |
| < 10 nM | CCn1nc2cc(N3CCCc4cc(C(=O)N5CCC(F)CC5)cnc43)ccn2c1=O [Example 8-165] |
